The assay has as its target T1, recombinant human NaV1.8 stably transfected HEK cells (Homo sapiens, UniProt Q9Y5Y9).
T1 construct: expressed in transfected cells; host or cells: HEK cells, stably transfected
Description: Compound profiling on NaV1.8, human NaV1.8 cell line, SyncroPatch384PE automated patch clamp assay (Example 102, first set of compounds, Table 16). The note with it: human NaV1.8 HEK cells, Table 16 (first set of compounds). In kind it is cell-based. In a few lines:
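Automated whole-cell patch clamp on HEK cells precultured at 30 °C one day before recording; CsF-based internal, 140 mM NaCl external. 10-point curve, 20–0.001 μM final, 0.1% DMSO, 5 min exposure. IC50 for resting (P1, −120 mV hold) and inactivated (P2, after 10 s at −40 mV) block, normalized to 250 μM tetracaine and DMSO.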
A general note: In patch-clamp work, channel activity is measured electrically.

Where [1] appears, read: inactivated state block (P2 measurement), read-out: P2IC50.
[2] abbreviates: resting state block (P1 measurement), read-out: P1IC50.

Structures are written as SMILES. Read-outs that look alike come from different tables or passages of the source.

T1 sequence (Q9Y5Y9 whole entry): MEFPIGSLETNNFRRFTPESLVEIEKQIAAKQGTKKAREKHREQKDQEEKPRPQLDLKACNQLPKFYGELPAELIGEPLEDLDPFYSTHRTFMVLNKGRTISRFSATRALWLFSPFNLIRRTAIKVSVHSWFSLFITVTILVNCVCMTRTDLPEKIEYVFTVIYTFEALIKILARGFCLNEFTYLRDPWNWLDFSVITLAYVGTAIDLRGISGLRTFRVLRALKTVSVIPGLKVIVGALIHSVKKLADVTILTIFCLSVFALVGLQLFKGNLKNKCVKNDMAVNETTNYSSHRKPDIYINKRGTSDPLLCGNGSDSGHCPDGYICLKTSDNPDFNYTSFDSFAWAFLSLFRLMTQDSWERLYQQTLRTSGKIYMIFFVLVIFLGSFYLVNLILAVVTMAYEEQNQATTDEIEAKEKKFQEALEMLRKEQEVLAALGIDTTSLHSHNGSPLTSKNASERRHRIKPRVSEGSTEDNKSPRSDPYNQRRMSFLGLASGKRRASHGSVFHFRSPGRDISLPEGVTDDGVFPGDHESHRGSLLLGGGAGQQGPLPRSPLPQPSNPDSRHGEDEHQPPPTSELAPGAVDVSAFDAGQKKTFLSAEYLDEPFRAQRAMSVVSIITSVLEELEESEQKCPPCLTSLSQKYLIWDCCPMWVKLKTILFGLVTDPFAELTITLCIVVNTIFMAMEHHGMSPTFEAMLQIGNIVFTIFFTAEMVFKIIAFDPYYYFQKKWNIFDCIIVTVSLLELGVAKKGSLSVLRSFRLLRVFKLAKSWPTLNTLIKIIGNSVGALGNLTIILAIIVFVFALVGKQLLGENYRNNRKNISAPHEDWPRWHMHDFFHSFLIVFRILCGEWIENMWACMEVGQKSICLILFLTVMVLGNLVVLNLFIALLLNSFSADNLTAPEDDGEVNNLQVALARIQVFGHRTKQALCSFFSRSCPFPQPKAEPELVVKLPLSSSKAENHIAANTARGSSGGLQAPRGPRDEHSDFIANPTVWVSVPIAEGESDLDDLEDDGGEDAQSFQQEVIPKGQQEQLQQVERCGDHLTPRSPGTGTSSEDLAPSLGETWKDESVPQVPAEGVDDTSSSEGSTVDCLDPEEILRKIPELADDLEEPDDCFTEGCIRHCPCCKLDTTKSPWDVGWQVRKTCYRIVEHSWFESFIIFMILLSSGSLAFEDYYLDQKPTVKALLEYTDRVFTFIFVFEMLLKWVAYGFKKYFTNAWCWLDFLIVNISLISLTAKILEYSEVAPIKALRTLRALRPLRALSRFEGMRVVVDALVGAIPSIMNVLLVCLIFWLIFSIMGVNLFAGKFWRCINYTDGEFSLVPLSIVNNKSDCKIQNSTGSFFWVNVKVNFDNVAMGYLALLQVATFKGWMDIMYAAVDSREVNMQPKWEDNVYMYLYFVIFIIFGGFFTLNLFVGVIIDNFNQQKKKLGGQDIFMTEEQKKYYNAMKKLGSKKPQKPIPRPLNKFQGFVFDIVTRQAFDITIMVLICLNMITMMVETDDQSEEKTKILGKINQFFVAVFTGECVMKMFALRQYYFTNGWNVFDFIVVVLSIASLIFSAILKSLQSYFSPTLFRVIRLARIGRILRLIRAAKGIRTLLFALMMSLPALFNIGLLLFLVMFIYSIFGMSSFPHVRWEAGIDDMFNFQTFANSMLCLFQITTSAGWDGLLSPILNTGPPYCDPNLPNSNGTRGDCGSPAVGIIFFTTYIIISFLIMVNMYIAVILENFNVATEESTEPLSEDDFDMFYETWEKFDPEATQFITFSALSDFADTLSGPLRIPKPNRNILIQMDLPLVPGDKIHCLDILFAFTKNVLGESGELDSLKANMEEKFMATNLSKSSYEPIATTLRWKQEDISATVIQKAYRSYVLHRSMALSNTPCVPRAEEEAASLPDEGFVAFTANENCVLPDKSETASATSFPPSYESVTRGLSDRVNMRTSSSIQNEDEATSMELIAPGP

In the case of `CNCC(=O)N=[S@](C)(=O)c1cccc(NC(=O)c2cc(C(F)(F)F)cnc2Oc2ccc(F)cc2C)c1` [Compound 1720, (R)-2-(4-fluoro-2-methylphenoxy)-N-(3-(S-methyl-N-(methylglycyl)sulfonimidoyl)phenyl)-5-(trifluoromethyl)nicotinamide], the IC50 under setting [1] was at most 20 nM and the IC50 under setting [2] was at most 20 nM.

Turning to `COc1c(Oc2nnc(C(F)(F)F)c(C)c2C(=O)Nc2cccc(S(C)(=N)=O)c2)ccc(Cl)c1F` (stereo not shown) [Compound 1489, 3-(4-chloro-3-fluoro-2-methoxy-phenoxy)-5-methyl-N-[3-(methylsulfonimidoyl)phenyl]-6-(trifluoromethyl)pyridazine-4-carboxamide], the IC50 is at most 20 nM under setting [1] and at most 20 nM under setting [2].

As to `Cc1c(C(F)(F)F)nnc(Oc2ccc(Cl)cc2F)c1C(=O)Nc1cccc(S(C)(=N)=O)c1` (single isomer, unassigned) [Compound 1471, 3-(4-chloro-2-fluoro-phenoxy)-5-methyl-N-[3-(methylsulfonimidoyl)phenyl]-6-(trifluoromethyl)pyridazine-4-carboxamide], the IC50 under setting [1] was at most 20 nM and the IC50 under setting [2] was at most 20 nM.

In the case of `Cc1c(Oc2nnc(C(F)(F)F)c(C)c2C(=O)Nc2cccc(S(C)(=N)=O)c2)ccc(Cl)c1F` (single isomer, unassigned) [Compound 1487, 3-(4-chloro-3-fluoro-2-methyl-phenoxy)-5-methyl-N-[3-(methylsulfonimidoyl)phenyl]-6-(trifluoromethyl)pyridazine-4-carboxamide], the IC50 was at most 20 nM under setting [1] and at most 20 nM under setting [2].

Take `COc1cc(C#N)ccc1Oc1nc(C(F)(F)F)nc(C)c1C(=O)Nc1ccc(C(N)=O)cc1` [Compound 1744, N-(4-carbamoylphenyl)-4-(4-cyano-2-methoxy-phenoxy)-6-methyl-2-(trifluoromethyl)pyrimidine-5-carboxamide]: the IC50 runs as follows: under setting [1], 40 to 200 nM; under setting [2], 40 to 200 nM.

In the case of `CC(C)(O)c1ccc(Oc2ncc(C(F)(F)F)cc2C(=O)Nc2cccc(S(C)(=O)=O)c2)c(F)c1` [Compound 1664], the IC50 was in the range of 200 to 500 nM under setting [1] and 200 to 500 nM under setting [2].

For `Cc1cc(F)ccc1Oc1ncc(C(F)(F)F)cc1C(=O)Nc1cccc([S@@](C)(=O)=NC(=O)CN(C)C(=O)OC(C)(C)C)c1` [Compound 1719, tert-butyl (R)-(2-(((3-(2-(4-fluoro-2-methylphenoxy)-5-(trifluoromethyl)nicotinamido)phenyl)(methyl)(oxo)-λ^6-sulfaneylidene)amino)-2-oxoethyl)(methyl)carbamate], the IC50 was at most 20 nM under setting [1] and at most 20 nM under setting [2].

As to `Cc1cc(F)ccc1Oc1nnc(C(F)(F)F)c(NC2CNC2)c1C(=O)Nc1cccc([S@@](C)(=N)=O)c1` [Compound 1523, (S)-5-(azetidin-3-ylamino)-3-(4-fluoro-2-methylphenoxy)-N-(3-(S-methylsulfonimidoyl)phenyl)-6-(trifluoromethyl)pyridazine-4-carboxamide], the IC50 is 200 to 500 nM under setting [1] and 200 to 500 nM under setting [2].

For `COc1cc(C#N)ccc1Oc1nnc(C(F)(F)F)c(C)c1C(=O)Nc1cccc(C(=O)N2CCNCC2)c1` [Compound 1438, 3-(4-cyano-2-methoxy-phenoxy)-5-methyl-N-[3-(piperazine-1-carbonyl)phenyl]-6-(trifluoromethyl)pyridazine-4-carboxamide], the IC50 reads like this: under setting [1], 40 to 200 nM; under setting [2], 40 to 200 nM.

On to `CSc1cccc(Oc2ncc(C(F)(F)F)cc2C(=O)Nc2cccc(S(C)(=O)=O)c2)c1` [Compound 1656], for which the IC50 reads like this: under setting [1], 40 to 200 nM; under setting [2], 40 to 200 nM.

Take `Cc1c(C(F)(F)F)nnc(Oc2ccc(OC(F)(F)F)c(F)c2F)c1C(=O)Nc1cccc(S(C)(=N)=O)c1` (single isomer, unassigned) [Compound 1477, 3-[2,3-difluoro-4-(trifluoromethoxy)phenoxy]-5-methyl-N-[3-(methylsulfonimidoyl)phenyl]-6-(trifluoromethyl)pyridazine-4-carboxamide]: the IC50 reads like this: under setting [1], at most 20 nM; under setting [2], at most 20 nM.

With `COc1cc(C#N)ccc1Oc1nnc(C(F)(F)F)c(C)c1C(=O)Nc1cncc(C#N)c1` [Compound 1540, 3-(4-cyano-2-methoxy-phenoxy)-N-(5-cyano-3-pyridyl)-5-methyl-6-(trifluoromethyl)pyridazine-4-carboxamide], the IC50 by setting is: under setting [1], 40 to 200 nM; under setting [2], 40 to 200 nM.

Turning to `COc1cc(C)c(Oc2ncc(C(F)(F)F)cc2C(=O)Nc2cccc(S(C)(=N)=O)c2)cc1C#N` (stereo not shown) [Compound 1621], the IC50 reads like this: under setting [1], 200 to 500 nM; under setting [2], 200 to 500 nM.

As to `COc1ccc(Oc2ncc(C(F)(F)F)cc2C(=O)Nc2cccc(S(C)(=N)=O)c2)cc1C#N` (stereo not shown) [Compound 1591], the IC50 lay within 200 to 500 nM under setting [1] and 200 to 500 nM under setting [2].

As to `CS(=O)(=O)c1cccc(NC(=O)c2cc(C(F)(F)F)cnc2Oc2cncc3ccccc23)c1` [Compound 1581], the IC50 fell in the range of 200 to 500 nM under setting [1] and 200 to 500 nM under setting [2].

Turning to `COc1cc(C#N)ccc1Oc1nnc(C(F)(F)F)c(C)c1C(=O)Nc1ccc(C(N)=O)cc1` [Compound 1405], the IC50 was at most 20 nM under setting [1] and at most 20 nM under setting [2].

Turning to `Cc1c(C(F)(F)F)nnc(Oc2ccc(Cl)cc2)c1C(=O)Nc1cccc(S(C)(=N)=O)c1` (stereo not shown) [Compound 22], the IC50 is 40 to 200 nM under setting [1] and 20 to 40 nM under setting [2].

Consider `COc1ccc(Oc2nnc(C(F)(F)F)c(C)c2C(=O)Nc2cccc(S(C)(=N)=O)c2)c(C)n1` (single isomer, unassigned) [Compound 1508, N-{3-[imino(methyl)oxo-λ^6-sulfanyl]phenyl}-3-[(6-methoxy-2-methylpyridin-3-yl)oxy]-5-methyl-6-(trifluoromethyl)pyridazine-4-carboxamide], for which the IC50 under setting [1] is 40 to 200 nM and the IC50 under setting [2] fell in the range of 40 to 200 nM.

On to `COc1c(Oc2ncc(C#N)cc2C(=O)Nc2cccc(S(C)(=N)=O)c2)ccc(F)c1F` (stereo not shown) [Compound 1723, 5-cyano-2-(3,4-difluoro-2-methoxy-phenoxy)-N-[3 (methylsulfonimidoyl)phenyl]pyridine-3-carboxamide], for which the IC50 is, setting by setting: under setting [1], 20 to 40 nM; under setting [2], 20 to 40 nM.

With `CS(=N)(=O)c1cccc(NC(=O)c2cc(C(F)(F)F)cnc2OC23CC(C(F)(F)F)(C2)C3)c1` (stereo not shown) [Compound 1633], the IC50 was 200 to 500 nM under setting [1] and 40 to 200 nM under setting [2].

Consider `Cc1c(C(F)(F)F)nnc(Oc2ccc(OC(C)C)c(F)c2F)c1C(=O)Nc1cccc(S(C)(=N)=O)c1` (stereo not shown) [Compound 1501, 3-[2,3-difluoro-4-(propan-2-yloxy)phenoxy]-N-{3-[imino(methyl)oxo-λ^6-sulfanyl]phenyl}-5-methyl-6-(trifluoromethyl)pyridazine-4-carboxamide], for which the IC50 reads like this: under setting [1], at most 20 nM; under setting [2], at most 20 nM.

Regarding `COc1ccc(-c2nnc(Oc3ccc(C#N)cc3OC)c(C(=O)Nc3cccc(S(C)(=N)=O)c3)c2C)cc1` (stereo not shown) [Compound 1454, 3-(4-cyano-2-methoxy-phenoxy)-6-(4-methoxyphenyl)-5-methyl-N-[3-(methylsulfonimidoyl)phenyl]pyridazine-4-carboxamide], the IC50 reads like this: under setting [1], at most 20 nM; under setting [2], at most 20 nM.

Regarding `CS(=N)(=O)c1cccc(NC(=O)c2cc(C(F)(F)F)cnc2Oc2ccc(OC(F)F)c(F)c2)c1` (stereo not shown) [Compound 1644], the IC50 under setting [1] was at most 20 nM and the IC50 under setting [2] is at most 20 nM.

Turning to `COc1ncc(Oc2ncc(C(F)(F)F)cc2C(=O)Nc2cccc(C(N)=O)c2)cc1F` [Compound 1698], the IC50 runs as follows: under setting [1], 200 to 500 nM; under setting [2], 200 to 500 nM.

`COc1cc(C#N)ccc1Oc1nnc(C2=CCN(C(C)=O)CC2)c(C)c1C(=O)Nc1cccc(S(C)(=N)=O)c1` (stereo not shown) [Compound 1554, 6-(1-acetyl-3,6-dihydro-2H-pyridin-4-yl)-3-(4-cyano-2-methoxy-phenoxy)-5-methyl-N-[3-(methylsulfonimidoyl)phenyl]pyridazine-4-carboxamide]: the IC50 under setting [1] lay within 200 to 500 nM and the IC50 under setting [2] lay within 200 to 500 nM.

Turning to `Cc1cc(F)ccc1Oc1ncc(C(F)(F)F)cc1C(=O)Nc1cccc(S(C)(=O)=O)c1` [Compound 1574, 2-(4-fluoro-2-methyl-phenoxy)-N-(3-methylsulfonylphenyl)-5-(trifluoromethyl)pyridine-3-carboxamide], the IC50 by setting is: under setting [1], at most 20 nM; under setting [2], at most 20 nM.

Turning to `Cc1nc(OC2CCC2)ccc1Oc1ncc(C(F)(F)F)cc1C(=O)Nc1cccc(C(N)=O)c1` [Compound 1565, N-(3-carbamoylphenyl)-2-[[6-(cyclobutoxy)-2-methyl-3-pyridyl]oxy]-5-(trifluoromethyl)pyridine-3-carboxamide], the IC50 is 200 to 500 nM under setting [1] and 200 to 500 nM under setting [2].

Turning to `Cc1c(C(F)(F)F)nnc(Oc2ccc(OC(F)(F)F)c(F)c2F)c1C(=O)Nc1cccc(S(C)(=O)=O)c1` [Compound 1419], the IC50 runs as follows: under setting [1], at most 20 nM; under setting [2], at most 20 nM.

On to `COc1ccc(C#N)cc1Oc1ncc(C(F)(F)F)cc1C(=O)Nc1cccc(S(C)(=N)=O)c1` (stereo not shown) [Compound 1620], for which the IC50 reads like this: under setting [1], 200 to 500 nM; under setting [2], 200 to 500 nM.

As for `Cc1cccc(Cl)c1Oc1nnc(C(F)(F)F)c(C)c1C(=O)Nc1ccc(C(N)=O)cc1` [Compound 1401], the IC50 under setting [1] fell in the range of 200 to 500 nM and the IC50 under setting [2] lay in the range of 200 to 500 nM.

For `CS(=O)(=O)c1cccc(NC(=O)c2cc(C(F)(F)F)cnc2Oc2cccc(OC(F)(F)F)c2)c1` [Compound 1657], the IC50 is, setting by setting: under setting [1], 200 to 500 nM; under setting [2], 200 to 500 nM.

Regarding `CS(=O)(=O)c1cccc(NC(=O)c2cc(C(F)(F)F)cnc2Oc2ccc(F)c3cnccc23)c1` [Compound 1583], the IC50 runs as follows: under setting [1], 20 to 40 nM; under setting [2], 20 to 40 nM.

Values taken from patent US20240336574A1 (LATIGO BIOTHERAPEUTICS, INC., priority 2021, published 2024).
